From ChEMBL document CHEMBL1201862, “PubChem BioAssay data set” (2004)
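Dose response: 5 concentrations. Exposure: 48 h. Format: 96-well plates. Endpoint: linear interpolation; highest concentration if not reached. GI50 = concentration required for 50% inhibition of growth.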 Active and inactive are the calls of the source. Cut-off read from the data, not from the text of the source: active = GI50 up to about 1.1 µM and inactive = higher.

Columns and labels:
Assay in all cases: NCI-60 cell line screen, 48 h
SW-620 = test system: SW-620
HOP-62 = test system: HOP-62
TK-10 = test system: TK-10
RPMI-8226 = test system: RPMI-8226
COLO 205 = test system: COLO 205
SNB-19 = test system: SNB-19
IGROV-1 = test system: IGROV-1
UACC-62 = test system: UACC-62
RXF 393 = test system: RXF 393
OVCAR-8 = test system: OVCAR-8
SN12C = test system: SN12C
SNB-75 = test system: SNB-75
K562 = test system: K562
CAKI-1 = test system: CAKI-1
NCI-H522 = test system: NCI-H522
SR = test system: SR

Measured: GI50

NNC(=O)C(=O)N/N=C1\CCCC1C(=O)CCC(=O)Nc1cccc(Cl)c1 (stereo unspecified)
inactive: SW-620 > 100 µM | HOP-62 > 100 µM | TK-10 > 100 µM | RPMI-8226 > 100 µM | COLO 205 > 100 µM | SNB-19 > 100 µM | IGROV-1 > 100 µM | UACC-62 > 100 µM | RXF 393 > 100 µM | OVCAR-8 > 100 µM | SN12C > 100 µM | SNB-75 > 100 µM

O=C(c1ccccc1)C(c1ccccc1)C1(O)C(=O)Nc2c(Cl)cc(Cl)cc21 (stereo unspecified)
inactive: SW-620 14.4 µM | HOP-62 > 10 µM | TK-10 18.3 µM | K562 15.5 µM | RPMI-8226 8.34 µM | COLO 205 19.1 µM | SNB-19 21.7 µM | RXF 393 19.1 µM | OVCAR-8 16.1 µM | SN12C > 100 µM | CAKI-1 17.4 µM | NCI-H522 16.6 µM | SNB-75 15.3 µM

CCN(CC)CCOC(c1ccccc1)c1ccccc1.CCOC(=O)Nc1ccc(S(=O)(=O)NCCCl)cc1.CCOC(=O)Nc1ccc(S(=O)(=O)NCCCl)cc1.Nc1ccc(C(=O)O)c(O)c1
inactive: SW-620 > 100 µM | HOP-62 > 100 µM | TK-10 > 100 µM | K562 > 100 µM | COLO 205 > 100 µM | SNB-19 > 100 µM | IGROV-1 > 100 µM | UACC-62 > 100 µM | RXF 393 > 100 µM | OVCAR-8 > 100 µM | SN12C > 100 µM | CAKI-1 > 100 µM | NCI-H522 > 100 µM | SNB-75 > 100 µM

O=C(O)/C=C\C(=O)Nc1ccc(S(=O)(=O)c2ccc(NC(=O)/C=C\C(=O)O)cc2)cc1
inactive: SW-620 > 100 µM | HOP-62 > 100 µM | TK-10 > 100 µM | K562 > 100 µM | RPMI-8226 > 100 µM | COLO 205 > 100 µM | SNB-19 > 100 µM | IGROV-1 > 100 µM | UACC-62 > 100 µM | OVCAR-8 > 100 µM | SN12C > 100 µM | CAKI-1 > 100 µM | NCI-H522 > 100 µM | SR > 100 µM | SNB-75 > 100 µM

O.O=C([O-])c1ccccc1Nc1ccccc1C(=O)[O-].[Zn+2]
inactive: SW-620 23.6 µM | HOP-62 > 43.1 µM | TK-10 95.1 µM | K562 28.9 µM | RPMI-8226 48 µM | COLO 205 > 49.7 µM | SNB-19 17.4 µM | IGROV-1 13.3 µM | UACC-62 19.7 µM | RXF 393 20.6 µM | OVCAR-8 26.9 µM | SN12C 83.8 µM | CAKI-1 5.08 µM | NCI-H522 13.2 µM | SR 19 µM | SNB-75 18.3 µM

N=C(N)C1=C(O)NC(=O)N(C2CCCCC2)C1
inactive: SW-620 > 100 µM | HOP-62 > 100 µM | TK-10 > 100 µM | K562 > 100 µM | RPMI-8226 > 100 µM | COLO 205 > 100 µM | SNB-19 > 100 µM | IGROV-1 > 100 µM | UACC-62 > 100 µM | RXF 393 > 100 µM | OVCAR-8 > 100 µM | SN12C > 100 µM | CAKI-1 > 100 µM | NCI-H522 > 100 µM | SR > 100 µM | SNB-75 > 100 µM

CN(CCO)c1nc(=O)c2c(n1C1OC(CO)C(O)C(O)C1O)CCCC2 (stereo unspecified)
inactive: SW-620 > 100 µM | HOP-62 > 100 µM | TK-10 > 100 µM | K562 > 100 µM | RPMI-8226 > 100 µM | COLO 205 > 100 µM | SNB-19 > 100 µM | IGROV-1 > 100 µM | UACC-62 > 100 µM | RXF 393 > 100 µM | OVCAR-8 > 100 µM | SN12C > 100 µM | CAKI-1 > 100 µM | NCI-H522 > 100 µM | SR > 100 µM | SNB-75 62.5 µM

COc1cc2nncc(Sc3cnnc4ccccc34)c2cc1OC
inactive: SW-620 16.6 µM | HOP-62 34.3 µM | TK-10 29 µM | K562 26 µM | RPMI-8226 16.9 µM | COLO 205 22.6 µM | SNB-19 19.8 µM | IGROV-1 21.9 µM | UACC-62 7.52 µM | CAKI-1 11.8 µM | NCI-H522 12.9 µM

C/C(=N\[N+](C)(C)C)C(c1ccccc1)C1(c2ccccc2)C(c2ccccc2)=C1c1ccccc1 (stereo unspecified)
inactive: SW-620 > 100 µM | HOP-62 33 µM | TK-10 90.2 µM | K562 > 100 µM | RPMI-8226 > 100 µM | SNB-19 > 100 µM | IGROV-1 > 100 µM | UACC-62 > 100 µM | RXF 393 22 µM | OVCAR-8 67.5 µM | SN12C > 100 µM | CAKI-1 > 100 µM | NCI-H522 > 100 µM

Cn1cc(NC(=O)c2cc(NC(=O)CCCCCCC(=O)Nc3cc(C(=O)Nc4cc(C(=O)NCCC(=N)N)n(C)c4)n(C)c3)cn2C)cc1C(=O)NCCC(=N)N
inactive: SW-620 29.7 µM | TK-10 11.6 µM | K562 5.35 µM | COLO 205 6.08 µM | SNB-19 29.2 µM | IGROV-1 3.8 µM | UACC-62 7.6 µM | RXF 393 17 µM | OVCAR-8 16.3 µM | SN12C 3.84 µM | CAKI-1 11 µM | SNB-75 10.1 µM

COCN1C(=O)C2CC(/C=C/C(N)=O)=CN2C(=O)c2ccccc21 (stereo unspecified)
inactive: SW-620 > 100 µM | HOP-62 > 100 µM | TK-10 > 100 µM | K562 > 100 µM | RPMI-8226 > 100 µM | COLO 205 > 100 µM | SNB-19 > 100 µM | IGROV-1 > 100 µM | UACC-62 > 100 µM | RXF 393 > 100 µM | OVCAR-8 > 100 µM | SN12C > 100 µM | NCI-H522 > 100 µM | SNB-75 > 100 µM

C#CCn1c(=O)c2cccnc2n(CC#C)c1=O
inactive: SW-620 > 100 µM | HOP-62 > 100 µM | TK-10 > 100 µM | RPMI-8226 > 100 µM | COLO 205 > 100 µM | SNB-19 > 100 µM | RXF 393 > 100 µM | SN12C > 100 µM | CAKI-1 > 100 µM | NCI-H522 > 100 µM | SR > 100 µM | SNB-75 > 100 µM

N#CC(NNC(=O)c1ccccc1O)c1cccc(O)c1 (stereo unspecified)
inactive: SW-620 30.1 µM | HOP-62 10.6 µM | TK-10 > 100 µM | K562 2.31 µM | RPMI-8226 > 100 µM | COLO 205 32.7 µM | IGROV-1 3.4 µM | UACC-62 1.85 µM | RXF 393 1.78 µM | OVCAR-8 8.22 µM | SN12C 4.7 µM | CAKI-1 5.43 µM | NCI-H522 9.73 µM | SR > 100 µM | SNB-75 1.7 µM

c1ccc2c3c([nH]c2c1)[C@H]1C2CCCCN2CN1CC3 (stereo partly specified)
inactive: SW-620 > 100 µM | HOP-62 > 100 µM | TK-10 > 100 µM | K562 > 100 µM | RPMI-8226 > 100 µM | COLO 205 > 100 µM | SNB-19 > 100 µM | IGROV-1 > 100 µM | UACC-62 51.8 µM | RXF 393 89.9 µM | OVCAR-8 > 100 µM | SN12C > 100 µM | CAKI-1 > 100 µM | NCI-H522 > 100 µM | SNB-75 27.1 µM

CC1=NN(C(=O)c2ccc(Cl)cc2)C(=O)/C1=C/c1cccc(O)c1
inactive: SW-620 > 100 µM | HOP-62 > 100 µM | TK-10 > 100 µM | K562 > 100 µM | RPMI-8226 > 100 µM | COLO 205 > 100 µM | SNB-19 > 100 µM | IGROV-1 > 100 µM | UACC-62 > 100 µM | RXF 393 > 100 µM | OVCAR-8 > 100 µM | SN12C > 100 µM | CAKI-1 > 100 µM | NCI-H522 > 100 µM

COc1ccc(-c2cc(C(=O)Nc3ccc(C)c(C)c3)nc(NC#N)n2)cc1
inactive: SW-620 > 100 µM | TK-10 > 100 µM | K562 > 100 µM | RPMI-8226 > 100 µM | COLO 205 > 100 µM | SNB-19 > 100 µM | IGROV-1 > 100 µM | UACC-62 > 100 µM | RXF 393 > 100 µM | OVCAR-8 > 100 µM | SN12C > 100 µM | CAKI-1 > 100 µM | NCI-H522 > 100 µM | SNB-75 > 100 µM

Cc1ccc(S(=O)(=O)C(C#N)c2nc3ccccc3nc2N2CCOCC2)cc1 (stereo unspecified)
inactive: SW-620 26.9 µM | HOP-62 20.5 µM | TK-10 56.6 µM | K562 > 10 µM | RPMI-8226 22 µM | COLO 205 30.3 µM | SNB-19 28.6 µM | IGROV-1 13.6 µM | UACC-62 12.4 µM | OVCAR-8 > 10 µM | SN12C 28.2 µM | CAKI-1 25.6 µM | NCI-H522 18.7 µM | SR 28.1 µM | SNB-75 22.8 µM

N#Cc1cccc(-n2[nH]c(=O)ccc2=O)c1
inactive: SW-620 > 100 µM | HOP-62 > 100 µM | TK-10 > 100 µM | K562 > 100 µM | RPMI-8226 > 100 µM | COLO 205 > 100 µM | SNB-19 > 100 µM | IGROV-1 > 100 µM | UACC-62 > 100 µM | OVCAR-8 > 100 µM | CAKI-1 > 100 µM | NCI-H522 > 100 µM | SR > 100 µM | SNB-75 59.7 µM

c1cc(-c2cn3ccsc3n2)ccn1
inactive: SW-620 > 43.1 µM | HOP-62 > 100 µM | TK-10 > 100 µM | K562 > 47.2 µM | RPMI-8226 > 54.5 µM | COLO 205 > 61.9 µM | SNB-19 > 100 µM | IGROV-1 > 100 µM | UACC-62 > 100 µM | OVCAR-8 > 45.1 µM | SN12C > 100 µM | CAKI-1 > 91 µM | NCI-H522 > 100 µM | SR 65.9 µM | SNB-75 > 86.9 µM
